Key:
[1] = biological target: T1, recombinant human CB1 receptors (Homo sapiens, UniProt P21554); assay: Binding to recombinant human CB1 receptors ([3H]-SR-141716A displacement, HEK293 membranes); conditions: [3H]-SR-141716A 1 nM; membranes of HEK293 cells expressing hCB1; Ki from IC50 by Cheng-Prusoff
T1 construct: expressed in transfected cells; host or cells: HEK293 cells
Description: The binding of compounds of Formula I to recombinant human CB1 receptors was determined in vitro by standard methods, with reference to the procedure described by Rinaldi-Carmona et al. (Rinaldi-Carmona, M., Pialot, F., Congy, C., Redon, E., Bart, F., Bachy, A., Breliere, J. C., Soubre, P., LeFur, G., Life Sci. 1996, 58(15), 1239-1247). Membranes were prepared from HEK293 cells expressing recombinant hCB1 receptors. Binding assays are performed in a total volume of 250 μL, containing [^3H]-SR-141716A (1 nM final concentration), membranes and test compound. Non-specific binding is determined using CP55,940 (10 μM). Serial dilutions are performed starting from test compounds as 10 mM solutions in DMSO. Compounds are tested over the concentration range 10^−10 M to 10^−5 M. Ki values are calculated from IC50 values using the Cheng-Prusoff equation.

T1 sequence (P21554 whole entry): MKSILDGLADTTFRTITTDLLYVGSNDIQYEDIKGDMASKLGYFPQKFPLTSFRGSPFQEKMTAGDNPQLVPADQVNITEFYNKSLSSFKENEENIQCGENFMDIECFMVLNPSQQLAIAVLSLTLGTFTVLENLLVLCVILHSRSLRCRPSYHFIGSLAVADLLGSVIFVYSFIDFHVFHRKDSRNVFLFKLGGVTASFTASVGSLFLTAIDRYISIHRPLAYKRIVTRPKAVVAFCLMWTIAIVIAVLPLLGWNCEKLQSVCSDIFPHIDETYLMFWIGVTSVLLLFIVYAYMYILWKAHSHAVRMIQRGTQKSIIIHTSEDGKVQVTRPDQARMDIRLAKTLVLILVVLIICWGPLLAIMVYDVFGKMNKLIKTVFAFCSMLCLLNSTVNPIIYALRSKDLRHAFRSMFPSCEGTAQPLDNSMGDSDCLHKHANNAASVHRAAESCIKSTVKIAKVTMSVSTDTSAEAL

| melting point | Ki [1] | Compound |
| --- | --- | --- |
| 163 to 165.5 °C | – | NC(=O)N1CC(OCc2cccc(Cl)c2)C1 [Example 44, 3-((3-chlorophenyl)methoxy)-azetidine-1-carboxamide] |
| 110.5 to 112 °C | – | CCC(OC1CN(C(N)=O)C1)c1cccc(C(F)(F)F)c1 (stereo not shown) [Example 42] |
| 76 to 78 °C | – | C[C@@H](O)CNC(=O)N1CC(OCc2ccc(Cl)cc2)C1 [Example 36] |
| – | 285 nM | C=CCNC(=O)N1CC(OC(c2ccc(Cl)cc2)c2ccc(Cl)cc2)C1 [Example 6, 3-(Bis(4-chlorophenyl)methoxy)-N-(2-propenyl)azetidine-1-carboxamide] |
